US10004701B2, “Methods and compositions for treating infection” (UNIVERSITY OF ROCHESTER, priority 2012, dated 2018)
Where two headings read alike, the source gives them in different places.

What was measured:
Experiment in all cases: AK assay 384-well format, Prestwick library screening
E. coli = format: cell-based, Escherichia coli; conditions: 50 μM final drug concentration; for AK-based Prestwick Library Screening Results: E. coli (increase in extracellular AK activity): 384-well; for fold induction at 50 µM: Escherichia coli, 3 h
[1] = system: A. baumannii strain 98-37-09; format: cell-based, Acinetobacter baumannii; conditions: 50 μM final drug concentration; for AK-based Prestwick Library Screening Results: A. baumannii (increase in extracellular AK activity): 384-well; for fold induction at 50 µM: Acinetobacter baumannii, 983709, 3 h
E. cloacae = format: cell-based, Enterobacter cloacae; conditions: 50 μM final drug concentration; for AK-based Prestwick Library Screening Results: E. cloacae (increase in extracellular AK activity): 384-well; for fold induction at 50 µM: Enterobacter cloacae, 3 h
E. faecium = format: cell-based, Enterococcus faecium; conditions: 50 μM final drug concentration; for AK-based Prestwick Library Screening Results: E. faecium (increase in extracellular AK activity): 384-well; for fold induction at 50 µM: Enterococcus faecium, 3 h
P. aeruginosa = format: cell-based, Pseudomonas aeruginosa; conditions: 50 μM final drug concentration; for AK-based Prestwick Library Screening Results: P. aeruginosa (increase in extracellular AK activity): 384-well; for fold induction at 50 µM: Pseudomonas aeruginosa, 3 h
[2] = system: S. aureus strain USA300-0114; format: cell-based, Staphylococcus aureus; conditions: 50 μM final drug concentration; for AK-based Prestwick Library Screening Results: S. aureus (increase in extracellular AK activity): 384-well; for fold induction at 50 µM: Staphylococcus aureus, USA300, 3 h
K. pneumoniae = format: cell-based, Klebsiella pneumoniae; conditions: 50 μM final drug concentration; for AK-based Prestwick Library Screening Results: K. pneumoniae (increase in extracellular AK activity): 384-well; for fold induction at 50 µM: Klebsiella pneumoniae, 3 h
[3] = planktonic, cutoff for positive 3-fold increase, read-out: AK-based Prestwick Library Screening Results, E. coli (fold increase in extracellular AK activity)
[4] = planktonic, cutoff for positive 3-fold increase, read-out: AK-based Prestwick Library Screening Results, A. baumannii (fold increase in extracellular AK activity)
[5] = planktonic, cutoff for positive 3-fold increase, read-out: AK-based Prestwick Library Screening Results, E. cloacae (fold increase in extracellular AK activity)
[6] = planktonic, cutoff for positive 3-fold increase, read-out: AK-based Prestwick Library Screening Results, E. faecium (fold increase in extracellular AK activity)
[7] = planktonic, cutoff for positive 3-fold increase, read-out: AK-based Prestwick Library Screening Results, P. aeruginosa (fold increase in extracellular AK activity)
[8] = planktonic, cutoff for positive 3-fold increase, read-out: AK-based Prestwick Library Screening Results, S. aureus (fold increase in extracellular AK activity)
[9] = planktonic, cutoff for positive 3-fold increase, read-out: AK-based Prestwick Library Screening Results, K. pneumoniae (fold increase in extracellular AK activity)

`COc1cc2c3cc1Oc1cc(ccc1O)C[C@@H]1c4c(cc(OC)c(O)c4Oc4ccc(cc4)C[C@@H]3N(C)CC2)CC[N+]1(C)C.Cl.O.O.O.O.O.[Cl-]` [Tubocurarine chloride pentahydrate (+)] was tested, and the “AK-based Prestwick Library Screening Results: E. coli (increase in extracellular AK activity)” value (E. coli; planktonic E. coli, […]) was 0.7, the “AK-based Prestwick Library Screening Results: A. baumannii (increase in extracellular AK activity)” value ([1]; planktonic A. baumannii, […]) was 0.7 and the “AK-based Prestwick Library Screening Results: E. cloacae (increase in extracellular AK activity)” value (E. cloacae; planktonic E. cloacae, […]) was 0.6. For the same compound, the “AK-based Prestwick Library Screening Results: E. faecium (increase in extracellular AK activity)” value (E. faecium; planktonic E. faecium, […]) was 0.9, the “AK-based Prestwick Library Screening Results: P. aeruginosa (increase in extracellular AK activity)” value (P. aeruginosa; planktonic P. aeruginosa, […]) was 0.6 and the “AK-based Prestwick Library Screening Results: S. aureus (increase in extracellular AK activity)” value ([2]; planktonic S. aureus, […]) was 0.5. For the same compound, the “AK-based Prestwick Library Screening Results: K. pneumoniae (increase in extracellular AK activity)” value (K. pneumoniae; planktonic K. pneumoniae, […]) was 0.6.
For `Cc1n[nH]c(=O)[nH]c1=O` [Azathymine, 6], the “AK-based Prestwick Library Screening Results: E. coli (increase in extracellular AK activity)” value (E. coli; planktonic E. coli, […]) was 0.6, the “AK-based Prestwick Library Screening Results: A. baumannii (increase in extracellular AK activity)” value ([1]; planktonic A. baumannii, cutoff for positive-scoring molecules 3-fold increase) was 0.5 and the “AK-based Prestwick Library Screening Results: E. cloacae (increase in extracellular AK activity)” value (E. cloacae; planktonic E. cloacae, cutoff for positive-scoring molecules 3-fold increase) was 0.6. The “AK-based Prestwick Library Screening Results: E. faecium (increase in extracellular AK activity)” value (E. faecium; planktonic E. faecium, cutoff for positive-scoring molecules 3-fold increase) was 0.9, the “AK-based Prestwick Library Screening Results: P. aeruginosa (increase in extracellular AK activity)” value (P. aeruginosa; planktonic P. aeruginosa, cutoff for positive-scoring molecules 3-fold increase) was 0.6 and the “AK-based Prestwick Library Screening Results: S. aureus (increase in extracellular AK activity)” value ([2]; planktonic S. aureus, cutoff for positive-scoring molecules 3-fold increase) was 0.4. For the same compound, the “AK-based Prestwick Library Screening Results: K. pneumoniae (increase in extracellular AK activity)” value (K. pneumoniae; planktonic K. pneumoniae, cutoff for positive-scoring molecules 3-fold increase) was 0.5.
In the case of `C[C@]12CC[C@H](O)C[C@H]1CC[C@@H]1[C@@H]2C[C@@H](O)[C@]2(C)[C@@H](C3=CC(=O)OC3)CC[C@]12O` [Digoxigenin], the fold induction at 50 µM (E. coli; planktonic, cutoff for positive-scoring molecules 3-fold increase, read-out: AK-based Prestwick Library Screening Results, E. coli (fold increase in extracellular AK activity)) is reported as 0.7, the fold induction at 50 µM ([1]; planktonic, cutoff for positive-scoring molecules 3-fold increase, read-out: AK-based Prestwick Library Screening Results, A. baumannii (fold increase in extracellular AK activity)) is reported as 0.6 and the fold induction at 50 µM (E. cloacae; planktonic, cutoff for positive-scoring molecules 3-fold increase, read-out: AK-based Prestwick Library Screening Results, E. cloacae (fold increase in extracellular AK activity)) is reported as 0.7. The fold induction at 50 µM (E. faecium; planktonic, cutoff for positive-scoring molecules 3-fold increase, read-out: AK-based Prestwick Library Screening Results, E. faecium (fold increase in extracellular AK activity)) was 0.8, the fold induction at 50 µM (P. aeruginosa; planktonic, cutoff for positive-scoring molecules 3-fold increase, read-out: AK-based Prestwick Library Screening Results, P. aeruginosa (fold increase in extracellular AK activity)) was 0.5 and the fold induction at 50 µM ([2]; planktonic, cutoff for positive-scoring molecules 3-fold increase, read-out: AK-based Prestwick Library Screening Results, S. aureus (fold increase in extracellular AK activity)) was 0.6. It also gave a fold induction at 50 µM (K. pneumoniae; planktonic, cutoff for positive-scoring molecules 3-fold increase, read-out: AK-based Prestwick Library Screening Results, K. pneumoniae (fold increase in extracellular AK activity)) of 0.6.
Compound `Cc1onc(-c2c(F)cccc2Cl)c1C(=O)N[C@@H]1C(=O)N2[C@@H]1SC(C)(C)[C@@H]2C(=O)O` [Flucloxacillin sodium] has a fold induction at 50 µM (E. coli; planktonic E. coli, positive cutoff 3-fold increase, read-out: AK-based Prestwick library screening result, E. coli (fold increase in extracellular AK activity)) of 1.3, a fold induction at 50 µM ([1]; planktonic A. baumannii, positive cutoff 3-fold increase, read-out: AK-based Prestwick library screening result, A. baumannii (fold increase in extracellular AK activity)) of 1.5 and a fold induction at 50 µM (E. cloacae; planktonic E. cloacae, positive cutoff 3-fold increase, read-out: AK-based Prestwick library screening result, E. cloacae (fold increase in extracellular AK activity)) of 1.3. For the same compound, the fold induction at 50 µM (E. faecium; planktonic E. faecium, positive cutoff 3-fold increase, read-out: AK-based Prestwick library screening result, E. faecium (fold increase in extracellular AK activity)) was 1, the fold induction at 50 µM (P. aeruginosa; planktonic P. aeruginosa, positive cutoff 3-fold increase, read-out: AK-based Prestwick library screening result, P. aeruginosa (fold increase in extracellular AK activity)) was 1.2 and the fold induction at 50 µM ([2]; planktonic S. aureus, positive cutoff 3-fold increase, read-out: AK-based Prestwick library screening result, S. aureus (fold increase in extracellular AK activity)) was 6.1. For the same compound, the fold induction at 50 µM (K. pneumoniae; planktonic K. pneumoniae, positive cutoff 3-fold increase, read-out: AK-based Prestwick library screening result, K. pneumoniae (fold increase in extracellular AK activity)) was 1.1.
`O=c1c(O)c(-c2cc(O)c(O)c(O)c2)oc2cc(O)cc(O)c12` [Myricetin] gave a fold induction at 50 µM (E. coli; [3]) of 0.9, a fold induction at 50 µM [1, 4] of 0.8 and a fold induction at 50 µM (E. cloacae; [5]) of 1.2. The fold induction at 50 µM (E. faecium; [6]) was 0.8, the fold induction at 50 µM (P. aeruginosa; [7]) was 0.9 and the fold induction at 50 µM [2, 8] was 0.5. It also gave a fold induction at 50 µM (K. pneumoniae; [9]) of 0.9.
`COc1cc2c(cc1O)C[C@H]1c3c(cc(O)c(OC)c3-2)CCN1C` [Boldine] gave a fold induction at 50 µM (E. coli; planktonic E. coli, […], read-out: AK-based Prestwick Library Screening Results, E. coli (increase in extracellular AK activity)) of 0.9, a fold induction at 50 µM ([1]; planktonic A. baumannii, […], read-out: AK-based Prestwick Library Screening Results, A. baumannii (increase in extracellular AK activity)) of 0.8 and a fold induction at 50 µM (E. cloacae; planktonic E. cloacae, […], read-out: AK-based Prestwick Library Screening Results, E. cloacae (increase in extracellular AK activity)) of 1.2. It also gave a fold induction at 50 µM (E. faecium; planktonic E. faecium, […], read-out: AK-based Prestwick Library Screening Results, E. faecium (increase in extracellular AK activity)) of 0.9, a fold induction at 50 µM (P. aeruginosa; planktonic P. aeruginosa, […], read-out: AK-based Prestwick Library Screening Results, P. aeruginosa (increase in extracellular AK activity)) of 0.9 and a fold induction at 50 µM ([2]; planktonic S. aureus, […], read-out: AK-based Prestwick Library Screening Results, S. aureus (increase in extracellular AK activity)) of 0.8. It also gave a fold induction at 50 µM (K. pneumoniae; planktonic K. pneumoniae, […], read-out: AK-based Prestwick Library Screening Results, K. pneumoniae (increase in extracellular AK activity)) of 0.7.
Compound `CN(C)CCOC(C)(c1ccccc1)c1ccccn1` (stereo not shown) [Doxylamine succinate] has a fold induction at 50 µM (E. coli; 384-well format, cutoff for positive-scoring molecules 3-fold increase, read-out: AK-based Prestwick Library Screening Results, E. coli (increase in extracellular AK activity)) of 0.8, a fold induction at 50 µM ([1]; 384-well format, cutoff for positive-scoring molecules 3-fold increase, read-out: AK-based Prestwick Library Screening Results, A. baumannii (increase in extracellular AK activity)) of 0.8 and a fold induction at 50 µM (E. cloacae; 384-well format, cutoff for positive-scoring molecules 3-fold increase, read-out: AK-based Prestwick Library Screening Results, E. cloacae (increase in extracellular AK activity)) of 1. The fold induction at 50 µM (E. faecium; 384-well format, cutoff for positive-scoring molecules 3-fold increase, read-out: AK-based Prestwick Library Screening Results, E. faecium (increase in extracellular AK activity)) was 0.9, the fold induction at 50 µM (P. aeruginosa; 384-well format, cutoff for positive-scoring molecules 3-fold increase, read-out: AK-based Prestwick Library Screening Results, P. aeruginosa (increase in extracellular AK activity)) was 0.8 and the fold induction at 50 µM ([2]; 384-well format, cutoff for positive-scoring molecules 3-fold increase, read-out: AK-based Prestwick Library Screening Results, S. aureus (increase in extracellular AK activity)) was 0.7. For the same compound, the fold induction at 50 µM (K. pneumoniae; 384-well format, cutoff for positive-scoring molecules 3-fold increase, read-out: AK-based Prestwick Library Screening Results, K. pneumoniae (increase in extracellular AK activity)) was 0.6.
`NC[C@H]1O[C@H](O[C@H]2[C@H](O)[C@@H](O[C@H]3O[C@H](CO)[C@@H](O)[C@H](N)[C@H]3O)[C@H](N)C[C@@H]2N)[C@H](N)C[C@@H]1O` [Tobramycin] gave a fold induction at 50 µM (E. coli; [3]) of 7.5, a fold induction at 50 µM [1, 4] of 5.7 and a fold induction at 50 µM (E. cloacae; [5]) of 1.5. The fold induction at 50 µM (E. faecium; [6]) was 0.9, the fold induction at 50 µM (P. aeruginosa; [7]) was 17.1 and the fold induction at 50 µM [2, 8] was 1.1. For the same compound, the fold induction at 50 µM (K. pneumoniae; [9]) was 2.
In the case of `CCC1=C[C@@H]2CN3CCc4c([nH]c5ccccc45)[C@@](C(=O)OC)(C2)[C@@H]13` [Catharanthine], the “AK-based Prestwick Library Screening Results, E. coli (increase in extracellular AK activity)” value (E. coli; 384-well format, […]) is reported as 1.0, the “AK-based Prestwick Library Screening Results, A. baumannii (increase in extracellular AK activity)” value ([1]; 384-well format, […]) is reported as 0.8 and the “AK-based Prestwick Library Screening Results, E. cloacae (increase in extracellular AK activity)” value (E. cloacae; 384-well format, […]) is reported as 1.0. For the same compound, the “AK-based Prestwick Library Screening Results, E. faecium (increase in extracellular AK activity)” value (E. faecium; 384-well format, […]) was 1.0, the “AK-based Prestwick Library Screening Results, P. aeruginosa (increase in extracellular AK activity)” value (P. aeruginosa; 384-well format, […]) was 0.7 and the “AK-based Prestwick Library Screening Results, S. aureus (increase in extracellular AK activity)” value ([2]; 384-well format, […]) was 0.8. The “AK-based Prestwick Library Screening Results, K. pneumoniae (increase in extracellular AK activity)” value (K. pneumoniae; 384-well format, […]) was 0.8.
With `Cc1c(C)c2c(c(C)c1O)CCC(C)(C(=O)O)O2` (stereo not shown) [Trolox] the fold induction at 50 µM (E. coli; [3]) was 1.1, the fold induction at 50 µM [1, 4] was 1.1 and the fold induction at 50 µM (E. cloacae; [5]) was 1.6. For the same compound, the fold induction at 50 µM (E. faecium; [6]) was 1.1, the fold induction at 50 µM (P. aeruginosa; [7]) was 1.1 and the fold induction at 50 µM [2, 8] was 1.6. For the same compound, the fold induction at 50 µM (K. pneumoniae; [9]) was 1.1.
